Assay results: the supplement of paper PMC10307832

What was measured:
Assay in all cases: relative viability (nuclei count vs DMSO), 5 days (fraction); higher = more cells survive
Afatinib + Pemetrexed = compound: CN(C)C/C=C/C(=O)Nc1cc2c(Nc3ccc(F)c(Cl)c3)ncnc2cc1O[C@H]1CCOC1 [Afatinib] + Nc1nc2[nH]cc(CCc3ccc(C(=O)N[C@@H](CCC(=O)O)C(=O)O)cc3)c2c(=O)[nH]1 [Pemetrexed] (partner 0.2 µM)
How it was run: (§1)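 One day after seeding in 1536-well plates, lung cancer cell lines were dosed by pin tool. Dosing was either single-drug or a fixed anchor-drug dose plus five library-drug doses (not always all listed) in √10 steps. After 5 days, nuclei were stained in one fix-and-stain step and counted on 4× images, and relative viability is the nuclei count of treated wells over that of vehicle wells, given as the median of duplicate plates.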

Afatinib + Crizotinib = compound: CN(C)C/C=C/C(=O)Nc1cc2c(Nc3ccc(F)c(Cl)c3)ncnc2cc1O[C@H]1CCOC1 [Afatinib] + C[C@@H](Oc1cc(-c2cnn(C3CCNCC3)c2)cnc1N)c1c(Cl)ccc(F)c1Cl [Crizotinib] (partner 1 µM)
How it was run: as §1

Afatinib + Dasatinib = compound: CN(C)C/C=C/C(=O)Nc1cc2c(Nc3ccc(F)c(Cl)c3)ncnc2cc1O[C@H]1CCOC1 [Afatinib] + Cc1nc(Nc2ncc(C(=O)Nc3c(C)cccc3Cl)s2)cc(N2CCN(CCO)CC2)n1 [Dasatinib] (partner 0.075 µM)
How it was run: as §1

Afatinib + Lapatinib = compound: CN(C)C/C=C/C(=O)Nc1cc2c(Nc3ccc(F)c(Cl)c3)ncnc2cc1O[C@H]1CCOC1 [Afatinib] + CS(=O)(=O)CCNCc1ccc(-c2ccc3ncnc(Nc4ccc(OCc5cccc(F)c5)c(Cl)c4)c3c2)o1 [Lapatinib] (partner 2 µM)
How it was run: as §1

## HCC-827
Afatinib + Pemetrexed; first compound 0.005 µM
  relative viability: 0.118
Afatinib + Pemetrexed; first compound 0.01581 µM
  relative viability: 0.157
Afatinib + Pemetrexed; first compound 0.05 µM
  relative viability: 0.153
Afatinib + Pemetrexed; first compound 0.1581 µM
  relative viability: 0.153
Afatinib + Pemetrexed; first compound 0.5 µM
  relative viability: 0.159
Afatinib + Crizotinib; first compound 0.005 µM
  relative viability: 0.169
Afatinib + Crizotinib; first compound 0.01581 µM
  relative viability: 0.176
Afatinib + Crizotinib; first compound 0.05 µM
  relative viability: 0.184
Afatinib + Crizotinib; first compound 0.1581 µM
  relative viability: 0.184
Afatinib + Crizotinib; first compound 0.5 µM
  relative viability: 0.21
Afatinib + Dasatinib; first compound 0.005 µM
  relative viability: 0.14
Afatinib + Dasatinib; first compound 0.01581 µM
  relative viability: 0.135
Afatinib + Dasatinib; first compound 0.05 µM
  relative viability: 0.16
Afatinib + Dasatinib; first compound 0.1581 µM
  relative viability: 0.175
Afatinib + Dasatinib; first compound 0.5 µM
  relative viability: 0.15
Afatinib + Lapatinib; first compound 0.005 µM
  relative viability: 0.0458
Afatinib + Lapatinib; first compound 0.01581 µM
  relative viability: 0.174
Afatinib + Lapatinib; first compound 0.05 µM
  relative viability: 0.186
Afatinib + Lapatinib; first compound 0.1581 µM
  relative viability: 0.186
Afatinib + Lapatinib; first compound 0.5 µM
  relative viability: 0.198

## NCI-H2228
Afatinib + Pemetrexed; first compound 0.005 µM
  relative viability: 0.283
Afatinib + Pemetrexed; first compound 0.01581 µM
  relative viability: 0.306
Afatinib + Pemetrexed; first compound 0.05 µM
  relative viability: 0.334
Afatinib + Pemetrexed; first compound 0.1581 µM
  relative viability: 0.298
Afatinib + Pemetrexed; first compound 0.5 µM
  relative viability: 0.322
Afatinib + Crizotinib; first compound 0.005 µM
  relative viability: 0.455
Afatinib + Crizotinib; first compound 0.01581 µM
  relative viability: 0.46
Afatinib + Crizotinib; first compound 0.05 µM
  relative viability: 0.345
Afatinib + Crizotinib; first compound 0.5 µM
  relative viability: 0.34
Afatinib + Dasatinib; first compound 0.005 µM
  relative viability: 0.619
Afatinib + Dasatinib; first compound 0.01581 µM
  relative viability: 0.56
Afatinib + Dasatinib; first compound 0.05 µM
  relative viability: 0.55
Afatinib + Dasatinib; first compound 0.1581 µM
  relative viability: 0.41
Afatinib + Dasatinib; first compound 0.5 µM
  relative viability: 0.634
Afatinib + Lapatinib; first compound 0.005 µM
  relative viability: 1.29
Afatinib + Lapatinib; first compound 0.01581 µM
  relative viability: 1.01
Afatinib + Lapatinib; first compound 0.05 µM
  relative viability: 0.958
Afatinib + Lapatinib; first compound 0.5 µM
  relative viability: 1.03

## NCI-H2170
Afatinib + Pemetrexed; first compound 0.005 µM
  relative viability: 0.251
Afatinib + Pemetrexed; first compound 0.01581 µM
  relative viability: 0.245
Afatinib + Pemetrexed; first compound 0.05 µM
  relative viability: 0.25
Afatinib + Pemetrexed; first compound 0.1581 µM
  relative viability: 0.214
Afatinib + Pemetrexed; first compound 0.5 µM
  relative viability: 0.212
Afatinib + Crizotinib; first compound 0.005 µM
  relative viability: 1.07
Afatinib + Crizotinib; first compound 0.01581 µM
  relative viability: 0.822
Afatinib + Crizotinib; first compound 0.05 µM
  relative viability: 0.534
Afatinib + Crizotinib; first compound 0.1581 µM
  relative viability: 0.25
Afatinib + Crizotinib; first compound 0.5 µM
  relative viability: 0.286
Afatinib + Dasatinib; first compound 0.005 µM
  relative viability: 0.352
Afatinib + Dasatinib; first compound 0.01581 µM
  relative viability: 0.281
Afatinib + Dasatinib; first compound 0.05 µM
  relative viability: 0.157
Afatinib + Dasatinib; first compound 0.1581 µM
  relative viability: 0.131
Afatinib + Dasatinib; first compound 0.5 µM
  relative viability: 0.155
Afatinib + Lapatinib; first compound 0.005 µM
  relative viability: 0.297
Afatinib + Lapatinib; first compound 0.01581 µM
  relative viability: 0.283
Afatinib + Lapatinib; first compound 0.05 µM
  relative viability: 0.268
Afatinib + Lapatinib; first compound 0.1581 µM
  relative viability: 0.269
Afatinib + Lapatinib; first compound 0.5 µM
  relative viability: 0.315

## EMC-BAC-2
Afatinib + Pemetrexed; first compound 0.005 µM
  relative viability: 0.441
Afatinib + Pemetrexed; first compound 0.01581 µM
  relative viability: 0.496
Afatinib + Pemetrexed; first compound 0.05 µM
  relative viability: 0.462
Afatinib + Pemetrexed; first compound 0.1581 µM
  relative viability: 0.523
Afatinib + Pemetrexed; first compound 0.5 µM
  relative viability: 0.511
Afatinib + Crizotinib; first compound 0.005 µM
  relative viability: 0.816
Afatinib + Crizotinib; first compound 0.01581 µM
  relative viability: 0.731
Afatinib + Crizotinib; first compound 0.05 µM
  relative viability: 0.698
Afatinib + Crizotinib; first compound 0.1581 µM
  relative viability: 0.693
Afatinib + Crizotinib; first compound 0.5 µM
  relative viability: 0.654
Afatinib + Dasatinib; first compound 0.005 µM
  relative viability: 0.314
Afatinib + Dasatinib; first compound 0.01581 µM
  relative viability: 0.302
Afatinib + Dasatinib; first compound 0.05 µM
  relative viability: 0.33
Afatinib + Dasatinib; first compound 0.1581 µM
  relative viability: 0.315
Afatinib + Dasatinib; first compound 0.5 µM
  relative viability: 0.296
Afatinib + Lapatinib; first compound 0.005 µM
  relative viability: 0.888
Afatinib + Lapatinib; first compound 0.01581 µM
  relative viability: 0.858
Afatinib + Lapatinib; first compound 0.05 µM
  relative viability: 0.892
Afatinib + Lapatinib; first compound 0.1581 µM
  relative viability: 0.941
Afatinib + Lapatinib; first compound 0.5 µM
  relative viability: 0.91
